This note sets out measurements from US9023789B2, “Amylin analogs and pharmaceutical compositions thereof” (Novo Nordisk A/S, priority 2012, dated 2015).

Data set [1] deals with T1, human amylin receptor (membranes from Amylin 3(a)/CRE-luc cells) (Homo sapiens, UniProt O60896+P30988).
T1 construct: expressed in transfected cells
T1 sequence (P30988 25-474): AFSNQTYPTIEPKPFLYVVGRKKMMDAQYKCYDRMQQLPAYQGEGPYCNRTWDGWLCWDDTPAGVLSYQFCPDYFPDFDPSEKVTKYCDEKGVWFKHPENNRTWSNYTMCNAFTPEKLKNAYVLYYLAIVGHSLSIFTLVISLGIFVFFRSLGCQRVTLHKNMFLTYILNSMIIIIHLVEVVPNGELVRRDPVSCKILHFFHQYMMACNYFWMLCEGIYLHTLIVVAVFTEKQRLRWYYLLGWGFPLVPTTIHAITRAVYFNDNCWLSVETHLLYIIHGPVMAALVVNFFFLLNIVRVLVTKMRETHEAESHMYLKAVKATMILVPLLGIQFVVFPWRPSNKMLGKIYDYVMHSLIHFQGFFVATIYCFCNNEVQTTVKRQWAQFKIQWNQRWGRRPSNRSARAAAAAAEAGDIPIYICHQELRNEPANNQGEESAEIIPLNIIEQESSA
T1 sequence (O60896 24-148 partner): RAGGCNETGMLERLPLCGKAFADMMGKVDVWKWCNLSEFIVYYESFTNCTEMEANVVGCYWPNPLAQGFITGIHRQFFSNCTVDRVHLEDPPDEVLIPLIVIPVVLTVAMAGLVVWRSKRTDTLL
Briefly: ASSAY (V) binding to the human amylin receptor (SPA, 125I-rat amylin).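 Note: competition binding of cell membranes (35 ng/µL) mixed with SPA beads in 384-well plates at 40 µL total volume, read by scintillation counting.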

For the next data set, the system named is Sprague Dawley (SD) rats. Kind of data set: ASSAY (I) efficacy testing on appetite (food intake) using an ad libitum fed rat model. The format is in vivo. Conditions: rat, 30 nmol/kg. In short, it runs like this: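 Individual food consumption was logged each hour up to 7 h and again at 24 h, occasionally 48 h, with Grubbs-test outliers removed. Each 200–250 g Sprague Dawley rat, free-feeding in its home cage under reversed lighting, received a single ip, po or sc dose of 0.01–3 mg/kg at lights-off, alongside a vehicle group.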

The next data set concerns the target T2, rat calcitonin receptor (Rattus norvegicus, UniProt P32214).
T2 construct: expressed in transfected cells; host or cells: BHK tk'ts 13 (transient, FuGENE 6), membranes
T2 sequence (P32214 25-479 isoform P32214-2 limits assumed): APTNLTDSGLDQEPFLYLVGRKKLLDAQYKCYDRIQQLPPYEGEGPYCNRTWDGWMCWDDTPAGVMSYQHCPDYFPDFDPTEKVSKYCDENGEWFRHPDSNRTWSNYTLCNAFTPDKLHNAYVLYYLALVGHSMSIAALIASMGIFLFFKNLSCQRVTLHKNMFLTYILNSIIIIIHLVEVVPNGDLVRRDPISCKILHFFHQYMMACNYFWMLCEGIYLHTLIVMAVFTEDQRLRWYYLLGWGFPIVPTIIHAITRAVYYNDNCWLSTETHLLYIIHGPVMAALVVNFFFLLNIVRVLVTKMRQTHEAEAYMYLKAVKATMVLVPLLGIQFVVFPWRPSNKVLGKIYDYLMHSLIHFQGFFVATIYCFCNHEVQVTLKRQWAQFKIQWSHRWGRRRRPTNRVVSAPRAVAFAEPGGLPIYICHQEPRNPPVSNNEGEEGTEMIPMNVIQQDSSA
Briefly: ASSAY (VIII) binding to the rat calcitonin receptor. Conditions: Table 7, read-out: rCTR bind IC50. In short, it runs like this:
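Receptor source: membranes from transiently transfected BHK tk′ts 13 cells expressing rat calcitonin receptor, collected roughly 48 hours after transfection.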

Data set [2] is described as follows: ASSAY (IV) determination of solubility. It is filed as physicochemical. The essentials:
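UPLC read-out of polypeptide concentration after centrifugation. Samples: aqueous polypeptide stock ([…]) + 100 mM buffer 1:1, glycylglycine pH 3.0–5.0 or bistrispropane pH 6.0–8.0; 18 h, RT.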

Where [3] appears, read: Table 5, selectivity, hCTR bind IC50 / hAmylin-R bind IC50.
Setting [4] is: Table 5a, selectivity, hCTR bind IC50 / hAmylin-R bind IC50.
The mark [5] stands for this setting: Table 5b, selectivity, hCTR bind IC50 / hAmylin-R bind IC50.
[6] abbreviates: Table 5c, selectivity, hCTR bind IC50 / hAmylin-R bind IC50.
The mark [7] stands for this setting: Table 7, human binding selectivity, included for comparison.
Where [8] appears, read: Table 7a (preferred compounds), human binding selectivity, included for comparison.
The mark [9] stands for this setting: ratio of human calcitonin receptor binding IC50 to human amylin receptor binding IC50.
The mark [10] stands for this setting: bistrispropane buffer, pH 6.5, read-out: Solubility pH 6.5 Concentration.
Where [11] appears, read: bistrispropane buffer, pH 7.5, read-out: Solubility pH 7.5 Concentration.
The mark [12] stands for this setting: bistrispropane buffer, pH 6.0, read-out: Solubility pH 6.0 Concentration.
[13] abbreviates: bistrispropane buffer, pH 7.0, read-out: Solubility pH 7.0 Concentration.
Where [14] appears, read: bistrispropane buffer, pH 8.0, read-out: Solubility pH 8.0 Concentration.
Setting [15] is: glycylglycine buffer, pH 3.0, read-out: Solubility pH 3.0 Concentration.
Setting [16] is: glycylglycine buffer, pH 4.0, read-out: Solubility pH 4.0 Concentration.
The mark [17] stands for this setting: glycylglycine buffer, pH 5.0, read-out: Solubility pH 5.0 Concentration.

In brackets after ≈: the same amount, converted by molar mass. Where two headings read alike, the source gives them in different places. Numbered stars: 1 amine (or outer) side, 2 acyl side, 3 side chain; on linkers, the order of the positions; unused ones are H or OH. Bridge positions count the residues as written; N and C are the ends. Side chains are listed from the residue outwards. Peptide text beside a SMILES is read from it. * marks the point of attachment. C20 diacid = O=C(O)CCCCCCCCCCCCCCCCCCC(=O)*; γGlu = O=C(O)[C@H](CCC(=O)[*:2])N[*:1]

`CC[C@H](C)[C@H](NC(=O)[C@H](C)NC(=O)CNC(=O)[C@H](Cc1ccccc1)NC(=O)[C@H](CC(N)=O)NC(=O)[C@@H]1CCCN1C(=O)[C@H](CO)NC(=O)[C@H](CO)NC(=O)[C@H](Cc1c[nH]cn1)NC(=O)[C@H](CCCNC(=N)N)NC(=O)[C@H](CC(C)C)NC(=O)[C@H](Cc1ccccc1)NC(=O)[C@H](CC(N)=O)NC(=O)[C@H](C)NC(=O)[C@H](CC(C)C)NC(=O)[C@H](CCCNC(=N)N)NC(=O)[C@H](CCC(N)=O)NC(=O)[C@@H](NC(=O)[C@H](C)NC(=O)[C@@H]1CSSC[C@H](NC(=O)[C@@H](N)CCCCNC(=O)CC[C@H](NC(=O)CCCCCCCCCCCCCCCCCCC(=O)O)C(=O)O)C(=O)N[C@@H](CC(N)=O)C(=O)N[C@@H]([C@@H](C)O)C(=O)N[C@@H](C)C(=O)N[C@@H]([C@@H](C)O)C(=O)N1)[C@@H](C)O)C(=O)N1CCC[C@H]1C(=O)N[C@@H](CO)C(=O)N[C@@H](CO)C(=O)N[C@H](C(=O)N[C@@H](CC(N)=O)C(=O)N[C@H](C(=O)NCC(=O)N[C@@H](Cc1c[nH]cn1)C(=O)N[C@@H](CC(N)=O)C(=O)N[C@H](C(=O)N[C@@H](Cc1ccc(O)cc1)C(N)=O)[C@@H](C)O)C(C)C)[C@@H](C)O` [Example 77]: the “Ratio hCT/hAmylin binding” value in data set [1] (setting [3]), in data set [1] (setting [4]), in data set [1] (setting [5]), in data set [1] (setting [6]), in data set [1] (setting [7]) and in data set [1] (setting [8]) was 118.4 each time. In data set [1] (setting [9]), the “Ratio hCT/hAmylin binding” value is listed as 118.4. For the same molecule, the “Food intake reduction 0-24 h 30 nmol/kg (%)” value in the data set on Sprague Dawley (SD) rats is recorded as 40%. Also, in the data set on Sprague Dawley (SD) rats, the “Food intake reduction 24-48 h 30 nmol/kg (%)” value was 16%. The IC50 on rat calcitonin receptor is 205 nM. Further, the solubility at 18 h in data set [2] (setting [10]) is ≥ 200 µM; in data set [2] (setting [11]) it was 147 µM (≈ 651 µg/mL); in data set [2] (setting [12]) it was ≥ 200 µM; in data set [2] (setting [13]), ≥ 200 µM; in data set [2] (setting [14]) it was 59 µM (≈ 261 µg/mL); in data set [2] (setting [15]), ≥ 200 µM. In addition, the solubility at 18 h in data set [2] (setting [16]) and in data set [2] (setting [17]) was ≥ 200 µM throughout. Besides, the “Solubility pH 6.5 Concentration” value in data set [2] (pH 6.5 (Table 9a)) was “≧200 μM”. Besides, the “Solubility pH 7.0 Concentration” value in data set [2] (pH 7.0 (Table 9a)) was “≧200 μM”.
For `CC[C@H](C)[C@H](NC(=O)[C@H](C)NC(=O)CNC(=O)[C@H](Cc1ccccc1)NC(=O)[C@H](CC(N)=O)NC(=O)[C@@H]1CCCN1C(=O)[C@H](CO)NC(=O)[C@H](CO)NC(=O)[C@H](Cc1c[nH]cn1)NC(=O)[C@H](CCCNC(=N)N)NC(=O)[C@H](CC(C)C)NC(=O)[C@H](Cc1ccccc1)NC(=O)[C@H](CCC(=O)O)NC(=O)[C@H](C)NC(=O)[C@H](CC(C)C)NC(=O)[C@H](CCCNC(=N)N)NC(=O)[C@H](CCC(N)=O)NC(=O)[C@@H](NC(=O)[C@H](C)NC(=O)[C@@H]1CSSC[C@H](NC(=O)[C@@H](N)CCCCNC(=O)CC[C@H](NC(=O)CCCCCCCCCCCCCCCCCCC(=O)O)C(=O)O)C(=O)N[C@@H](CC(N)=O)C(=O)N[C@@H]([C@@H](C)O)C(=O)N[C@@H](C)C(=O)N[C@@H]([C@@H](C)O)C(=O)N1)[C@@H](C)O)C(=O)N1CCC[C@H]1C(=O)N[C@@H](CO)C(=O)N[C@@H](CO)C(=O)N[C@H](C(=O)N[C@@H](CC(N)=O)C(=O)N[C@H](C(=O)NCC(=O)N[C@@H](CO)C(=O)N[C@@H](CCCNC(=N)N)C(=O)N[C@H](C(=O)N[C@@H](Cc1ccc(O)cc1)C(N)=O)[C@@H](C)O)C(C)C)[C@@H](C)O` [Example 51] (H-K([γGlu-C20 diacid])CNTATCATQRLAEFLRHSSPNFGAIPSSTNVGSRTY-NH2; disulfide 2-7 (inferred); N-terminus assumed), the “Ratio hCT/hAmylin binding” value in data set [1] (setting [3]), in data set [1] (setting [4]), in data set [1] (setting [5]), in data set [1] (setting [6]), in data set [1] (setting [7]) and in data set [1] (setting [8]) was 37.5 throughout. Further, in data set [1] (setting [9]), the “Ratio hCT/hAmylin binding” value is on record as 37.5. Besides, the “Food intake reduction 0-24 h 30 nmol/kg (%)” value with Sprague Dawley (SD) rats is reported as 52%. Also, the “Food intake reduction 24-48 h 30 nmol/kg (%)” value in the data set on Sprague Dawley (SD) rats is 30%. Moreover, on rat calcitonin receptor, the concentration for half-maximal inhibition (IC50) was 62 nM. Further, the solubility at 18 h in data set [2] (setting [10]) was ≥ 200 µM; in data set [2] (setting [11]) it was 183 µM (≈ 812 µg/mL); in data set [2] (setting [12]), ≥ 200 µM; in data set [2] (setting [13]), ≥ 200 µM; in data set [2] (setting [14]), 109 µM (≈ 484 µg/mL); in data set [2] (setting [15]), ≥ 200 µM. Moreover, the solubility at 18 h in data set [2] (setting [16]) and in data set [2] (setting [17]) was ≥ 200 µM each time.
With `CC[C@H](C)[C@H](NC(=O)[C@H](C)NC(=O)CNC(=O)[C@H](Cc1ccccc1)NC(=O)[C@H](CC(N)=O)NC(=O)[C@@H]1CCCN1C(=O)[C@H](CO)NC(=O)[C@H](CO)NC(=O)[C@H](Cc1c[nH]cn1)NC(=O)[C@H](CCCNC(=N)N)NC(=O)[C@H](CC(C)C)NC(=O)[C@H](Cc1ccccc1)NC(=O)[C@H](CC(N)=O)NC(=O)[C@H](C)NC(=O)[C@H](CC(C)C)NC(=O)[C@H](CCCNC(=N)N)NC(=O)[C@H](CCC(N)=O)NC(=O)[C@@H](NC(=O)[C@H](C)NC(=O)[C@@H]1CSSC[C@H](NC(=O)[C@@H](N)CCCCNC(=O)CC[C@H](NC(=O)CCCCCCCCCCCCCCCCCCC(=O)O)C(=O)O)C(=O)N[C@@H](CC(N)=O)C(=O)N[C@@H]([C@@H](C)O)C(=O)N[C@@H](C)C(=O)N[C@@H]([C@@H](C)O)C(=O)N1)[C@@H](C)O)C(=O)N1CCC[C@H]1C(=O)N[C@@H](CO)C(=O)N[C@@H](CO)C(=O)N[C@H](C(=O)N[C@@H](CC(N)=O)C(=O)N[C@H](C(=O)NCC(=O)N[C@@H](CO)C(=O)N[C@@H](CCCCN)C(=O)N[C@H](C(=O)N[C@@H](Cc1ccc(O)cc1)C(N)=O)[C@@H](C)O)C(C)C)[C@@H](C)O` [Example 35] (H-K([γGlu-C20 diacid])CNTATCATQRLANFLRHSSPNFGAIPSSTNVGSKTY-NH2; disulfide 2-7; N-terminus assumed), the concentration for half-maximal inhibition (IC50) in data set [1] (Table 4, read-out: hAmylin-R bind IC50) is 0.97 nM; at rat calcitonin receptor it was 61.7 nM. Also, the “Ratio hCT/hAmylin binding” value in data set [1] (setting [3]), in data set [1] (setting [4]), in data set [1] (setting [5]), in data set [1] (setting [6]), in data set [1] (setting [7]) and in data set [1] (setting [8]) was 50.3 in each case. Also, in data set [1] (setting [9]), the “Ratio hCT/hAmylin binding” value was found to be 50.3. In the data set with Sprague Dawley (SD) rats, the “Food intake reduction 0-24 h 30 nmol/kg (%)” value amounted to 51%. In addition, in the data set on Sprague Dawley (SD) rats, the “Food intake reduction 24-48 h 30 nmol/kg (%)” value turned out to be 15%. Besides, the solubility at 18 h in data set [2] (setting [10]), in data set [2] (setting [11]), in data set [2] (setting [12]), in data set [2] (setting [13]), in data set [2] (setting [14]) and in data set [2] (setting [15]) was ≥ 200 µM in each case. For the same molecule, the solubility at 18 h in data set [2] (setting [16]) and in data set [2] (setting [17]) was ≥ 200 µM each time.
